Structures are written as SMILES.

The target of this assay is T1, Human M4 (Homo sapiens, UniProt P08173).
T1 construct: expressed in transfected cells; host or cells: CHO-K1 (ATCC), stably co-expressing chimeric G protein Gqi5
T1 sequence (P08173 1-479): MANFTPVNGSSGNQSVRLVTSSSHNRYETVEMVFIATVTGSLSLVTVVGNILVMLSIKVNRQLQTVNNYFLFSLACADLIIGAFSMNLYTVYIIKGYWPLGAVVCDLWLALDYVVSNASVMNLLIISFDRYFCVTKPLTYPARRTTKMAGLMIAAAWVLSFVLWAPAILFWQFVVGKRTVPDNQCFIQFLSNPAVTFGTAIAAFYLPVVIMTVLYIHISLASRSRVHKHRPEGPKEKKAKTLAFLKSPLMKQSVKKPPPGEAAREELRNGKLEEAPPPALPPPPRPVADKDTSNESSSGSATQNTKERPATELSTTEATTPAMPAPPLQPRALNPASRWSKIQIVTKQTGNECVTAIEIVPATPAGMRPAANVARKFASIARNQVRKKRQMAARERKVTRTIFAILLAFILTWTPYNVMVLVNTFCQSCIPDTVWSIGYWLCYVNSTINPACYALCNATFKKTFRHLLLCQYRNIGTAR
As to the kind of experiment: mAChR M4 cell-based functional assay (calcium flux, antagonist mode). As to conditions: for remaining activity at 30 µM: % ACh maximum at 30 μM, read-out: Emin; for IC50: M4/Gqi5/CHO-K1 cells, concentration-dependent decrease of the EC80 acetylcholine response. How it is done:
Human or rat M4 cDNA, along with the chimeric G protein Gqi5, were transfected into Chinese hamster ovary (CHO-K1) cells purchased from the American Type Culture Collection using Lipofectamine2000. M4/Gqi5/CHO cells were grown in Ham's F-12 medium containing 10% heat-inactivated fetal bovine serum (FBS), 20 mM HEPES, 500 μg/mL G418 sulfate, and 200 μg/mL Hygromycin B.
For high throughput measurement of agonist-evoked increases in intracellular calcium, CHO-K1 cells stably expressing muscarinic receptors were plated in growth medium lacking G418 and hygromycin at 15,000 cells/20 μL/well in Greiner 384-well black-walled, tissue culture (TC)-treated, clear-bottom plates (VWR). Cells were incubated overnight at 37° C. and 5% CO2. The next day, cells were washed using an ELX 405 (BioTek) with assay buffer; the final volume was then aspirated to 20 μL, Next, 20 μL of a 2.3 μM stock of Fluo-4/acetoxymethyl ester (Invitrogen, Carlsbad, Calif.), prepared as a 2.3 μM stock in DMSO, mixed in a 1:1 ratio with 10% (w/v) Pluronic F-127 and diluted in assay buffer, was added to the wells and the cell plates were incubated for 50 min at 37° C. and 5% CO2. Dye was removed by washing with the ELX 405 and the final volume was aspirated to […]. Compound master plates were formatted in a 10 point concentration-response curve (CRC) format (1:3 dilutions) in 100% DMSO with a starting concentration of 10 or 1 mM using a BRAVO liquid handler (Agilent). Test compound CRCs were then transferred to daughter plates (240 nL) using the Echo acoustic plate reformatter (Labcyte, Sunnyvale, Calif.) and then diluted into assay buffer (40 μL) to a 2× stock using a Thermo Fisher Combi (Thermo Fisher Scientific, Waltham, Mass.).
Calcium flux was measured using the Functional Drug Screening System (FDSS) 6000 or 7000 (Hamamatsu Corporation, Tokyo, Japan) as an increase in the fluorescent static ratio. Compounds were applied to cells (20 μL, 2×) using the automated system of the FDSS at 2 seconds into the protocol and the data were collected at 1 Hz. At 143 s, 10 μL of an EC20 concentration of the muscarinic receptor agonist acetylcholine was added (5×), followed by the addition of 12 μL of an EC80 concentration of acetylcholine at the 268 s time point (5×). Agonist activity was analyzed as a concentration-dependent increase in calcium mobilization upon compound addition. Positive allosteric modulator activity was analyzed as a concentration-dependent increase in the EC20 acetylcholine response. Antagonist activity was analyzed as a concentration-dependent decrease in the EC80 acetylcholine response; for the purposes of the tables herein, an […] (inhibitory concentration 50) was calculated as a concentration-dependent decrease of the response elicited by an EC80 concentration of acetylcholine. Concentration-response curves were generated using a four-parameter logistical equation in XLFit curve fitting software (IDBS, Bridgewater, N.J.) for Excel (Microsoft, Redmond, Wash.) or Prism (GraphPad Software, Inc., San Diego, Calif.) or the Dotmatics software platform (Dotmatics, Bishop's Stortford, UK).
Compounds were synthesized as described above. Activity (IC50 and Emin) was determined in the mAChR M4 cell-based functional assay as described above and the data are shown in Table 4.

As to `Cc1nn(C)cc1-c1ccc(NC2CC3(CCN(CCC(C)(C)C)CC3)C2)nn1` [Compound 1, 7-(3,3-Dimethylbutyl)-N-[6-(1,3-dimethylpyrazol-4-yl)pyridazin-3-yl]-7-azaspiro[3.5]nonan-2-amine], the remaining activity at 30 µM was determined as 3.48%.

As a reminder, the IC50 is the concentration that inhibits the measured activity by half. `Cc1cnn(C)c1-c1ccc(NC2CC3(CCN(CCC(C)(C)C)CC3)C2)nn1` [Compound 2, 7-(3,3-Dimethylbutyl)-N-[6-(2,4-dimethylpyrazol-3-yl)pyridazin-3-yl]-7-azaspiro[3.5]nonan-2-amine]: the remaining activity at 30 µM was 3.29% and the half-inhibitory concentration (IC50) stood at 89 nM.

Regarding `Cc1nn(C)cc1-c1ccc(NC2CC3(CCN(CC4CC5C=CC4C5)CC3)C2)nn1` (centres unmarked) [Compound 3, 7-(5-bicyclo[2.2.1]hept-2-enylmethyl)-N-[6-(1,3-dimethylpyrazol-4-yl)pyridazin-3-yl]-7-azaspiro[3.5]nonan-2-amine], the remaining activity at 30 µM was determined as 3.12% and the IC50 is 10 nM.

In the case of `Cc1nn(C)cc1-c1ccc(NC2CC3(CCN(CC(C)C(C)(C)C)CC3)C2)nn1` (centres unmarked) [Compound 4, N-[6-(1,3-dimethylpyrazol-4-yl)pyridazin-3-yl]-7-(2,3,3-trjmethylbutyl)-7-azaspiro[3.5]nonan-2-amine], the remaining activity at 30 µM came to 4.05% and the IC50 was 1020 nM.

Consider `Cc1nn(C)cc1-c1ccc(NC2CC3(CCN(CC4CCOCC4)CC3)C2)nn1` [Compound 5, N-[6-(1,3-dimethylpyrazol-4-yl)pyridazin-3-yl]-7-(tetrahydropyran-4-ylmethyl)-7-azaspiro[3.5]nonan-2-amine], for which the remaining activity at 30 µM was 15.9% and the IC50 was more than 10000 nM.

On to `Cc1nn(C)cc1-c1ccc(NC2CC3(CCN(CC4CCSCC4)CC3)C2)nn1` [Compound 6], for which the remaining activity at 30 µM came out at 4.58% and the IC50 came to 330 nM.

As to `Cc1cccnc1CN1CCC2(CC1)CC(Nc1ccc(-c3cn(C)nc3C)nn1)C2` [Compound 7, N-[6-(1,3-dimethyipyrazol-4-yl)pyridazin-3-yl]-7-[(3-methyl-2-pyridyl)methyl]-7-azaspiro[3.5]nonan-2-amine], the remaining activity at 30 µM is 9.14% and the half-maximal inhibitory concentration (IC50) is 1740 nM.

Regarding `Cc1cnn(C)c1-c1ccc(NC2CC3(CCN(CC4CC5C=CC4C5)CC3)C2)nn1` (centres unmarked) [Compound 8, 7-(5-bicyclo[2.2.1]hept-2-enylmethyl)-N-[6-(2,4-dimethylpyrazol-3-yl)pyridazin-3-yl]-7-azaspiro[3.5]nonan-2-amine], the remaining activity at 30 µM was determined as 2.86% and the half-maximal inhibitory concentration (IC50) was 10 nM.

As for `Cc1cnn(C)c1-c1ccc(NC2CC3(CCN(CC(C)C(C)(C)C)CC3)C2)nn1` (centres unmarked) [Compound 9, N-[6-(2,4-dimethylpyrazol-3-yl)pyridazin-3-yl]-7-(2,3,3-trimethylbutyl)-7-azaspiro[3.5]nonan-2-amine], the remaining activity at 30 µM was 3.11% and the IC50 came out at 220 nM.

Regarding `Cc1cnn(C)c1-c1ccc(NC2CC3(CCN(CC4CCOCC4)CC3)C2)nn1` [Compound 10, N-[6-(2,4-dimethylpyrazol-3-yl)pyridazin-3-yl]-7-(tetrahydropyran-4-ylmethyl)-7-azaspiro[3.5]nonan-2-amine], the remaining activity at 30 µM is 23.1% and the IC50 was more than 10000 nM.

Consider `Cc1cnn(C)c1-c1ccc(NC2CC3(CCN(CC4CCSCC4)CC3)C2)nn1` [Compound 11, N-[6-(2,4-dimethylpyrazol-3-yl)pyridazin-3-yl]-7-(tetrahydrothiopyran-4-ylmethyl)-7-azaspiro[3.5]nonan-2-amine], for which the remaining activity at 30 µM came to 3.95% and the concentration for half-maximal inhibition (IC50) stood at 210 nM.

For `Cc1cccnc1CN1CCC2(CC1)CC(Nc1ccc(-c3c(C)cnn3C)nn1)C2` [Compound 12, N-[6-(2,4-dimethylpyrazol-3-yl)pyridazin-3-yl]-7-[(3-methyl-2-pyridyl)methyl]-7-azaspiro[3.5]nonan-2-amine], the remaining activity at 30 µM came to 6.85% and the IC50 was 1120 nM.

Take `Cc1nn(C)cc1-c1ccc(OC2CC3(CCN(CCC(C)(C)C)CC3)C2)nn1` [Compound 13, 7-(3,3-Dimethylbutyl)-2-[6-(1,3-dimethylpyrazol-4-yl)pyridazin-3-yl]oxy-7-azaspiro[3.5]nonane]: the remaining activity at 30 µM turned out to be 2.85% and the concentration for half-maximal inhibition (IC50) was 200 nM.

For `Cc1cnn(C)c1-c1ccc(OC2CC3(CCN(CCC(C)(C)C)CC3)C2)nn1` [Compound 14, 7-(3,3-Dimethylbutyl)-2-[6-(2,4-dimethylpyrazol-3-yl)pyridazin-3-yl]oxy-7-azaspiro[3.5]nonane], the remaining activity at 30 µM was found to be 3.92% and the IC50 was determined as 240 nM.

Turning to `CC(C)(C)CCN1CCC2(CC1)CC(Oc1ccc(-c3cc(F)ccc3Cl)nn1)C2` [Compound 15, 2-[6-(2-Chloro-5-fluoro-phenyl)pyridazin-3-yl]oxy-7-(3,3-dimethylbutyl)-7-azaspiro[3.5]nonane], the remaining activity at 30 µM came out at 3.01% and the IC50 was determined as 330 nM.

Regarding `Fc1ccc(Cl)c(-c2ccc(OC3CC4(CCN(CC5CC6C=CC5C6)CC4)C3)nn2)c1` (centres unmarked) [Compound 16, 7-(5-bicyclo[2.2.1]hept-2-enylmethyl)-2-[6-(2-chloro-5-fluoro-phenyl)pyridazin-3-yl]oxy-7-azaspiro[3.5]nonane], the remaining activity at 30 µM amounted to 3.07% and the half-maximal inhibitory concentration (IC50) came to 180 nM.

As to `CC(CN1CCC2(CC1)CC(Oc1ccc(-c3cc(F)ccc3Cl)nn1)C2)C(C)(C)C` (centres unmarked) [Compound 17, 2-[6-(2-chloro-5-fluoro-phenyl)pyridazin-3-yl]oxy-7-(2,3,3-trimethylbutyl)-7-azaspiro[3.5]nonane], the remaining activity at 30 µM was 2.73% and the half-inhibitory concentration (IC50) came out at 590 nM.

On to `Fc1ccc(Cl)c(-c2ccc(OC3CC4(CCN(CC5CCCCC5)CC4)C3)nn2)c1` [Compound 18, 2-[6-(2-chloro-5-fluoro-phenyl)pyridazin-3-yl]oxy-7-(cyclohexylmethyl)-7-azaspiro[3.5]nonane], for which the remaining activity at 30 µM was determined as 2.94% and the 50% inhibitory concentration (IC50) amounted to 760 nM.

Consider `Fc1ccc(Cl)c(-c2ccc(OC3CC4(CCN(CC5CCOCC5)CC4)C3)nn2)c1` [Compound 19, 2-[6-(2-chloro-5-fluoro-phenyl)pyridazin-3-yl]oxy-7-(tetrahydropyran-4-ylmethyl)-7-azaspiro[3.5]nonane], for which the remaining activity at 30 µM stood at 3.47% and the IC50 is 1140 nM.

Turning to `Fc1ccc(Cl)c(-c2ccc(OC3CC4(CCN(CC5CCCOC5)CC4)C3)nn2)c1` (centres unmarked) [Compound 20, 2-[6-(2-chloro-5-fluoro-phenyl)pyridazin-3-yl]oxy-7-(tetrahydropyran-3-ylmethyl)-7-azaspiro[3.5]nonane], the remaining activity at 30 µM amounted to 5.55% and the IC50 stood at 1770 nM.

Regarding `Fc1ccc(Cl)c(-c2ccc(OC3CC4(CCN(CC5CCSCC5)CC4)C3)nn2)c1` [Compound 21, 2-[6-(2-chloro-5-fluoro-phenyl)pyridazin-3-yl]oxy-7-(tetrahydrothiopyran-4-ylmethyl)-7-azaspiro[3.5]nonane], the remaining activity at 30 µM amounted to 3.22% and the IC50 worked out at 530 nM.

Values taken from patent US11149022B2, “Antagonists of the muscarinic acetylcholine receptor M4” (Vanderbilt University, priority 2017, dated 2021).
